Reference: patent publication US8802597B2, “Herbicidal pyrimidines” (E I du Pont de Nemours and Company, priority 2003, dated 2014)

Tests used:
Type in all cases: in vivo
[1] = tested on: bermudagrass (Cynodon dactylon); experiment: Test C pre/postemergence; details: for Bermudagrass plant response rating: scale 0 to 100 (0 no effect, 100 complete control)
In short: (§1)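 Visual injury ratings, 0 (no effect) to 100 (complete control), made 12 to 14 days after treatment by comparison with untreated controls. Greenhouse plants received test chemical in a surfactant-containing non-phytotoxic solvent, either preemergence on planted seeds or postemergence at the 1- to 4-leaf stage.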

[2] = tested on: velvetleaf (Abutilon theophrasti); experiment: Test C pre/postemergence; details: for Velvetleaf plant response rating: scale 0 to 100 (0 no effect, 100 complete control)
In short: as §1

[3] = tested on: crabgrass (Digitaria sanguinalis); experiment: Test C pre/postemergence; details: for Crabgrass plant response rating: scale 0 to 100 (0 no effect, 100 complete control)
In short: as §1

[4] = tested on: goosegrass (Eleusine indica); experiment: Test C pre/postemergence; details: for Goosegrass plant response rating: scale 0 to 100 (0 no effect, 100 complete control)
In short: as §1

[5] = tested on: cocklebur (Xanthium strumarium); experiment: Test C pre/postemergence; details: for Cocklebur plant response rating: scale 0 to 100 (0 no effect, 100 complete control)
In short: as §1

[6] = tested on: lambsquarters (Chenopodium album); experiment: Test C pre/postemergence; details: for Lambsquarters plant response rating: scale 0 to 100 (0 no effect, 100 complete control)
In short: as §1

corn (Zea mays) = experiment: Test C pre/postemergence; details: for Corn plant response rating: scale 0 to 100 (0 no effect, 100 complete control)
In short: as §1

[7] = tested on: eastern black nightshade (Solanum ptycanthum); experiment: Test C pre/postemergence; details: Preemergence
In short: as §1

[8] = tested on: barnyardgrass (Echinochloa crus-galli); experiment: Test A pre/postemergence
In short: (§2)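 Visual injury scores on a 0–100 scale, 100 being complete control, were assigned roughly ten days after treatment by comparison with untreated greenhouse controls. Test chemicals, formulated with surfactant in non-phytotoxic solvent, were sprayed onto soil preemergence and onto 1–2-leaf plants 2–10 cm tall postemergence.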

[9] = tested on: giant foxtail (Setaria faberi); experiment: Test A pre/postemergence
In short: as §2

[10] = Preemergence, 16 g ai/ha, scale 0 to 100, 0 no effect, 100 complete control
[11] = Preemergence, 31 g ai/ha, scale 0 to 100, 0 no effect, 100 complete control
[12] = Preemergence, 62 g ai/ha, scale 0 to 100, 0 no effect, 100 complete control
[13] = Preemergence, 125 g ai/ha, scale 0 to 100
[14] = 62 g ai/ha, scale 0 to 100, 0 no effect, 100 complete control
[15] = Postemergence, 125 g ai/ha, 0 to 100 scale (0 no effect, 100 complete control)
[16] = Postemergence, 500 g ai/ha, 0 to 100 scale (0 no effect, 100 complete control)
[17] = Preemergence, 125 g ai/ha, 0 to 100 scale where 0 is no effect and 100 is complete control, approximately ten days
[18] = Preemergence, 500 g ai/ha, 0 to 100 scale where 0 is no effect and 100 is complete control, approximately ten days
[19] = Postemergence, 250 g ai/ha, scale 0 to 100
[20] = Postemergence, 500 g ai/ha, scale 0 to 100
[21] = Preemergence, 250 g ai/ha, scale 0 to 100
[22] = Preemergence, 500 g ai/ha, scale 0 to 100

CCCCOC(=O)c1nc(C2CC2)nc(N)c1Cl [Compound 76]
Plant response rating (scale of 0 to 100), Bermudagrass ([1]; Postemergence, 16 g ai/ha): 15 | Plant response rating (scale of 0 to 100), Bermudagrass ([1]; Postemergence, 31 g ai/ha): 70 | Bermudagrass plant response rating ([1]; Postemergence, 62 g ai/ha): 75 | Bermudagrass plant response rating ([1]; Postemergence, 125 g ai/ha): 75 | Plant response rating, Bermudagrass [1, 10]: 0 | Plant response rating, Bermudagrass [1, 11]: 0 | Plant response rating, Bermudagrass [1, 12]: 0 | Plant response rating, Bermudagrass [1, 13]: 0 | Plant response rating (scale of 0 to 100), Velvetleaf ([2]; Postemergence, 16 g ai/ha): 45 | Plant response rating (scale of 0 to 100), Velvetleaf ([2]; Postemergence, 31 g ai/ha): 80 | Plant response rating (scale of 0 to 100), Velvetleaf ([2]; Postemergence, 62 g ai/ha): 95 | Velvetleaf plant response rating ([2]; Postemergence, 125 g ai/ha): 95 | Plant response rating, Velvetleaf [2, 10]: 30 | Plant response rating, Velvetleaf [2, 11]: 40 | Plant response rating, Velvetleaf [2, 12]: 70 | Plant response rating (scale of 0 to 100), Crabgrass ([3]; Postemergence, 16 g ai/ha): 55 | Plant response rating (scale of 0 to 100), Crabgrass ([3]; Postemergence, 31 g ai/ha): 75 | Plant response rating (scale of 0 to 100), Crabgrass ([3]; Postemergence, 62 g ai/ha): 85 | Crabgrass plant response rating ([3]; Postemergence, 125 g ai/ha): 90 | Plant response rating, Crabgrass [3, 10]: 0 | Plant response rating, Crabgrass [3, 11]: 0 | Plant response rating, Crabgrass [3, 12]: 5 | Plant response rating, Crabgrass [3, 13]: 60 | Plant response rating (scale of 0 to 100), Goosegrass ([4]; Postemergence, 16 g ai/ha): 30 | Plant response rating (scale of 0 to 100), Goosegrass ([4]; Postemergence, 31 g ai/ha): 45 | Plant response rating (scale of 0 to 100), Goosegrass ([4]; Postemergence, 62 g ai/ha): 45 | Goosegrass plant response rating ([4]; Postemergence, 125 g ai/ha): 50 | Plant response rating, Goosegrass [4, 10]: 0 | Plant response rating, Goosegrass [4, 11]: 0 | Plant response rating, Goosegrass [4, 12]: 0 | Plant response rating, Goosegrass [4, 13]: 0 | Plant response rating (scale of 0 to 100), Cocklebur ([5]; Postemergence, 16 g ai/ha): 100 | Plant response rating (scale of 0 to 100), Cocklebur ([5]; Postemergence, 31 g ai/ha): 100 | Plant response rating (scale of 0 to 100), Cocklebur ([5]; Postemergence, 62 g ai/ha): 100 | Cocklebur plant response rating ([5]; Postemergence, 125 g ai/ha): 100 | Plant response rating, Cocklebur [5, 10]: 65 | Plant response rating, Cocklebur [5, 11]: 90 | Plant response rating, Cocklebur [5, 12]: 90 | Plant response rating, Cocklebur [5, 13]: 90 | Plant response rating (scale of 0 to 100), Lambsquarters ([6]; Postemergence, 16 g ai/ha): 90 | Plant response rating (scale of 0 to 100), Lambsquarters ([6]; Postemergence, 31 g ai/ha): 95 | Plant response rating (scale of 0 to 100), Lambsquarters ([6]; Postemergence, 62 g ai/ha): 100 | Lambsquarters plant response rating ([6]; Postemergence, 125 g ai/ha): 100 | Plant response rating, Lambsquarters [6, 10]: 70 | Plant response rating, Lambsquarters [6, 11]: 70 | Plant response rating, Lambsquarters [6, 12]: 80 | Plant response rating, Lambsquarters [6, 13]: 80 | Plant response rating (scale of 0 to 100), Corn (corn (Zea mays); Postemergence, 16 g ai/ha): 10 | Plant response rating (scale of 0 to 100), Corn (corn (Zea mays); Postemergence, 31 g ai/ha): 35 | Plant response rating (scale of 0 to 100), Corn (corn (Zea mays); Postemergence, 62 g ai/ha): 55 | Corn plant response rating (corn (Zea mays); Postemergence, 125 g ai/ha): 70 | Plant response rating, Corn (corn (Zea mays); [10]): 0 | Plant response rating, Corn (corn (Zea mays); [11]): 0 | Plant response rating, Corn (corn (Zea mays); [12]): 35 | Plant response rating, Corn (corn (Zea mays); [13]): 45 | Plant response rating, Nightshade ([7]; 16 g ai/ha, scale 0 to 100, 0 no effect, 100 complete control): 30 | Plant response rating, Nightshade ([7]; 31 g ai/ha, scale 0 to 100, 0 no effect, 100 complete control): 40 | Plant response rating, Nightshade [7, 14]: 60 | Plant response rating, Nightshade ([7]; scale 0 to 100, 0 no effect, 100 complete control): 100 | Plant response rating, Barnyardgrass [8, 15]: 90 | Plant response rating, Barnyardgrass [8, 16]: 90 | Plant response rating, Barnyardgrass [8, 17]: 75 | Plant response rating, Barnyardgrass [8, 18]: 90 | Plant response rating, Foxtail, Giant [9, 15]: 90 | Plant response rating, Foxtail, Giant [9, 16]: 90 | Plant response rating, Foxtail, Giant [9, 17]: 70 | Plant response rating, Foxtail, Giant [9, 18]: 85

CNN=Cc1nc(C2CC2)nc(N)c1Br [Compound 49]
Bermudagrass plant response rating ([1]; Postemergence, 62 g ai/ha): 0 | Bermudagrass plant response rating ([1]; Postemergence, 125 g ai/ha): 55 | Plant response rating, Bermudagrass [1, 19]: 55 | Plant response rating, Bermudagrass [1, 20]: 65 | Plant response rating, Bermudagrass [1, 12]: 0 | Plant response rating, Bermudagrass [1, 13]: 0 | Plant response rating, Bermudagrass [1, 21]: 85 | Plant response rating, Bermudagrass [1, 22]: 95 | Velvetleaf plant response rating ([2]; Postemergence, 62 g ai/ha): 45 | Velvetleaf plant response rating ([2]; Postemergence, 125 g ai/ha): 70 | Plant response rating, Velvetleaf [2, 19]: 75 | Plant response rating, Velvetleaf [2, 20]: 80 | Plant response rating, Velvetleaf [2, 12]: 15 | Plant response rating, Velvetleaf [2, 13]: 70 | Plant response rating, Velvetleaf [2, 21]: 90 | Plant response rating, Velvetleaf [2, 22]: 100 | Crabgrass plant response rating ([3]; Postemergence, 62 g ai/ha): 0 | Crabgrass plant response rating ([3]; Postemergence, 125 g ai/ha): 65 | Plant response rating, Crabgrass [3, 19]: 75 | Plant response rating, Crabgrass [3, 20]: 95 | Plant response rating, Crabgrass [3, 12]: 95 | Plant response rating, Crabgrass [3, 13]: 95 | Plant response rating, Crabgrass [3, 21]: 95 | Plant response rating, Crabgrass [3, 22]: 100 | Goosegrass plant response rating ([4]; Postemergence, 62 g ai/ha): 0 | Goosegrass plant response rating ([4]; Postemergence, 125 g ai/ha): 0 | Plant response rating, Goosegrass [4, 19]: 20 | Plant response rating, Goosegrass [4, 20]: 25 | Plant response rating, Goosegrass [4, 12]: 0 | Plant response rating, Goosegrass [4, 13]: 0 | Plant response rating, Goosegrass [4, 21]: 0 | Plant response rating, Goosegrass [4, 22]: 15 | Cocklebur plant response rating ([5]; Postemergence, 62 g ai/ha): 75 | Cocklebur plant response rating ([5]; Postemergence, 125 g ai/ha): 95 | Plant response rating, Cocklebur [5, 19]: 95 | Plant response rating, Cocklebur [5, 20]: 95 | Plant response rating, Cocklebur [5, 12]: 20 | Plant response rating, Cocklebur [5, 13]: 95 | Plant response rating, Cocklebur [5, 21]: 95 | Plant response rating, Cocklebur [5, 22]: 100 | Lambsquarters plant response rating ([6]; Postemergence, 62 g ai/ha): 70 | Lambsquarters plant response rating ([6]; Postemergence, 125 g ai/ha): 90 | Plant response rating, Lambsquarters [6, 19]: 95 | Plant response rating, Lambsquarters [6, 20]: 95 | Plant response rating, Lambsquarters [6, 12]: 100 | Plant response rating, Lambsquarters [6, 13]: 100 | Plant response rating, Lambsquarters [6, 21]: 100 | Plant response rating, Lambsquarters [6, 22]: 100 | Corn plant response rating (corn (Zea mays); Postemergence, 62 g ai/ha): 0 | Corn plant response rating (corn (Zea mays); Postemergence, 125 g ai/ha): 0 | Plant response rating, Corn (corn (Zea mays); [19]): 20 | Plant response rating, Corn (corn (Zea mays); [20]): 25 | Plant response rating, Corn (corn (Zea mays); [13]): 15 | Plant response rating, Corn (corn (Zea mays); [21]): 15 | Plant response rating, Corn (corn (Zea mays); [22]): 65 | Plant response rating, Nightshade [7, 14]: 95 | Plant response rating, Nightshade ([7]; 125 g ai/ha, scale 0 to 100): 100 | Plant response rating, Nightshade ([7]; 250 g ai/ha, scale 0 to 100): 100 | Plant response rating, Nightshade ([7]; 500 g ai/ha, scale 0 to 100): 100
